Measurements reported in the supplement of paper PMC10307832.

Key:
Assay in all cases: relative viability (nuclei count vs DMSO), 5 days (fraction); higher = more cells survive
Idelalisib + Trametinib = compound: CC[C@H](Nc1ncnc2[nH]cnc12)c1nc2cccc(F)c2c(=O)n1-c1ccccc1 [Idelalisib] + CC(=O)Nc1cccc(-n2c(=O)n(C3CC3)c(=O)c3c(Nc4ccc(I)cc4F)n(C)c(=O)c(C)c32)c1 [Trametinib] (partner 0.02 µM)
Procedure, shortened: (§1)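 Relative viability equals treated-well nuclei counts divided by vehicle-well nuclei counts. Counts came from 4× images of lung cancer cell lines grown in 1536-well plates for 5 days after pin-tool dosing on the day after seeding. Dosing used one drug alone or a fixed anchor-drug dose plus five library-drug doses (not always all listed) in √10 steps, and values are medians of duplicate plates.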

Idelalisib + Pictilisib = compound: CC[C@H](Nc1ncnc2[nH]cnc12)c1nc2cccc(F)c2c(=O)n1-c1ccccc1 [Idelalisib] + CS(=O)(=O)N1CCN(Cc2cc3nc(-c4cccc5[nH]ncc45)nc(N4CCOCC4)c3s2)CC1 [Pictilisib] (partner 1 µM)
Procedure, shortened: as §1

Idelalisib + Vorinostat = compound: CC[C@H](Nc1ncnc2[nH]cnc12)c1nc2cccc(F)c2c(=O)n1-c1ccccc1 [Idelalisib] + O=C(CCCCCCC(=O)Nc1ccccc1)NO [Vorinostat] (partner 1 µM)
Procedure, shortened: as §1

Pemetrexed + Foretinib = compound: Nc1nc2[nH]cc(CCc3ccc(C(=O)N[C@@H](CCC(=O)O)C(=O)O)cc3)c2c(=O)[nH]1 [Pemetrexed] + COc1cc2c(Oc3ccc(NC(=O)C4(C(=O)Nc5ccc(F)cc5)CC4)cc3F)ccnc2cc1OCCCN1CCOCC1 [Foretinib] (partner 0.25 µM)
Procedure, shortened: as §1

UMC-11
relative viability (Idelalisib + Trametinib; first compound 0.04 µM): 0.786 | relative viability (Idelalisib + Trametinib; first compound 0.1265 µM): 0.651 | relative viability (Idelalisib + Trametinib; first compound 0.4 µM): 0.629 | relative viability (Idelalisib + Trametinib; first compound 1.265 µM): 0.764 | relative viability (Idelalisib + Trametinib; first compound 4 µM): 0.72 | relative viability (Idelalisib + Pictilisib; first compound 0.04 µM): 0.939 | relative viability (Idelalisib + Pictilisib; first compound 0.1265 µM): 0.744 | relative viability (Idelalisib + Pictilisib; first compound 0.4 µM): 0.778 | relative viability (Idelalisib + Pictilisib; first compound 1.265 µM): 0.939 | relative viability (Idelalisib + Pictilisib; first compound 4 µM): 0.865 | relative viability (Idelalisib + Vorinostat; first compound 0.04 µM): 0.474 | relative viability (Idelalisib + Vorinostat; first compound 0.1265 µM): 0.392 | relative viability (Idelalisib + Vorinostat; first compound 0.4 µM): 0.363 | relative viability (Idelalisib + Vorinostat; first compound 1.265 µM): 0.437 | relative viability (Idelalisib + Vorinostat; first compound 4 µM): 0.358 | relative viability (Pemetrexed + Foretinib; first compound 0.002 µM): 1.02 | relative viability (Pemetrexed + Foretinib; first compound 0.006325 µM): 0.943 | relative viability (Pemetrexed + Foretinib; first compound 0.02 µM): 1.14 | relative viability (Pemetrexed + Foretinib; first compound 0.06325 µM): 1.02 | relative viability (Pemetrexed + Foretinib; first compound 0.2 µM): 0.847
